Tests used:
PDH phosphatase = PDH phosphatase activation; assay type: biochemical; settings: 100 μM
Description: (§1) Methods for obtaining A-type and P-type mediators are set out in Caro et al, 1997, and in WO98/11116 and WO98/11117. Protocols for determining characteristic IPG biological activities such as PDH activation, PKA inhibition, acetylCoA activation, fructose-1,6-bis-phosphatase activity and lipogenesis are well known in the art, e.g. as described in Caro et al^[14].
(§2) The compounds of the invention can be tested for one or more the characteristic IPG-P and/or IPG-A activities mentioned above to determine whether they will be suitable for use a IPG mimetics or antagonists. Preferred assays measure the effect of the compounds on PDH phosphatase, PKA or lipogenesis. Protocols for these assays are provided in Caro et al^[14].

lipogenesis [1] = assay: basal lipogenesis stimulation; assay type: cell-based; settings: FIG. 2
Description: as §1, §2

lipogenesis [2] = assay: glucose stimulated lipogenesis stimulation; assay type: cell-based; settings: FIG. 3
Description: as §1, §2

PKA = PKA inhibition; assay type: biochemical
Description: as §1, §2

Structure (SMILES)	PDH activation (PDH phosphatase) [%]	effect on basal lipogenesis (lipogenesis [1])	effect on glucose stimulated lipogenesis (lipogenesis [2])	PKA inhibition (PKA; 0.1 μM) [%]	PKA inhibition (PKA; 10 μM) [%]
N[C@H]1[C@@H](O[C@H]2[C@H](O)[C@H](O)[C@H](O)[C@@H](O)[C@@H]2O)O[C@H](COP(=O)(O)O)[C@@H](O)[C@@H]1O [RGL1023, O-(2′-amino-2′-deoxy-6′-phosphate-D-glucopyranosyl)-α(1,6)-D-myo-inositol]	14	stimulate lipogenesis	stimulate lipogenesis	–	–
NC1C(OC2C(O)C(O)C(O)C(O)C2O)OC(CO)C(OP(=O)(O)O)C1O [RGL1027, O-(2′-amino-2′-deoxy-4′-phosphate-D-glucopyranosyl)-α(1,6)-D-myo-inositol]	132	inhibits lipogenesis	inhibits lipogenesis	18	10
NC1C(OC2C(O)C(O)C(O)C(O)C2O)OC(CO)C(O)C1OP(=O)(O)O [RGL1029, O-(2′-amino-2′-deoxy-3′-phosphate-D-glucopyranosyl)-α(1,6)-D-myo-inositol]	361	stimulate lipogenesis	stimulate lipogenesis	59	33
NC1C(OC2C(O)C(O)C(O)C(O)C2OP(=O)(O)O)OC(CO)C(O)C1O [RGL1115, 1′-D-6-O-(2′-amino-2′-deoxy-α-D-glucanopyranosyl)-5-O-phosphate-myo-inositol]	18	–	–	–	–
